These results are taken from patent publication US9540337B2, “Gamma-glutamyl transpeptidase inhibitors and methods of use” (The Board of Regents of the University of Oklahoma, priority 2012, dated 2017).

Series [1] has as its target T1, Human GGT1 (hGGT) (Homo sapiens, UniProt P19440). Put plainly: D-GpNA Hydrolysis Assay (release of pNA, 405 nm, pH 7.4). The procedure: Enzyme Isolation: Human GGT1 (P19440), lacking the transmembrane domain, was expressed in Pichia pastoris and isolated as previously described (14). […] One unit of GGT activity was defined as the amount of enzyme that released 1 μmol of paranitroaniline/min at 37° C. at pH 7.4 in the transpeptidation reaction.
The reaction was initiated with the addition of 19 mU GGT. The reaction was incubated at 37° C. and monitored continuously at 405 nm by a Bio-Rad model 680 microplate reader with Microplate Manager 5.2 software (Bio-Rad, Hercules, Calif.).
Data Analysis: Samples in each experiment were run in triplicate. Each inhibitor was evaluated in two or more independent experiments. Double reciprocal plots were generated to assess data quality and determine the correct rate equation for data fitting. Data were fitted using the proper rate equation and the Marquardt-Levenberg algorithm supplied with the Enzfitter program (BIOSOFT, Cambridge, UK). Kinetic parameters with standard errors were estimated using a simple weighting method.
Data adhering to Michaelis-Menten Kinetics were fitted to eq. 1. Data for initial rate patterns with D-, L-GpNA varied at different fixed levels of glygly were fitted to eq. […] Data for competitive and uncompetitive inhibition were fitted to eqs. 3 and 4. Data for the dependence of Vmax and Vmax/KD-GpNA on the concentration of activator were fitted using eq. 5 (25).
In eqs 1-6, Vmax are the initial and maximum rates, respectively, Ka and Kb are Michaelis constants for substrates A and B, respectively, and Kis and Kii are slope and intercept inhibition constants. In eq. 5, a is the value of Vmax or Vmax/KD-GpNA at zero activator/inhibitor, KID is the activation or inhibition constant, and KIN is a constant that causes the parameter to go to a constant value at infinite concentrations of X, the activator/inhibitor. The product a(KID/KIN) is the value of Vmax or Vmax/KD-GpNA at infinite activator/inhibitor (25). Data for noncompetitive inhibition were fitted to eq. 6. Data for the dependence of Vmax and Vmax/KD-GpNA on the concentration of activator were fitted using […].
Enzyme Isolation: hGGT (P19440), lacking the transmembrane domain, was expressed in Pichia pastoris and isolated as previously described. […] One unit of GGT activity was defined as the amount of enzyme that released 1 μmol of paranitroaniline/min at 37° C. at pH 7.4 in the transpeptidation reaction with L-GpNA.
D-GpNA Hydrolysis Assay: The assay was carried out as previously described. […] The reaction was initiated with the addition of 19 mU GGT as determined by the L-GpNA transpeptidation assay. The reaction was incubated at 37° C. and monitored continuously at 405 nm.

Series [2] is described as follows: Cytotoxicity in dividing 786-O cells (MTT assay, 72 hours). In kind it is cell-based, human. To be noted: human, 786-o cells, dividing 786-O cells, 72 hours; read-out: LD50. The procedure:
(§1) Cell Lines: 786-0 cells (ATCC CRL-1932), a human renal adenocarcinoma cell line, were grown in Dulbecco's Modified Eagle's Medium (DMEM) supplemented with 10% fetal bovine serum (FBS) and penicillin/streptomycin (50 units/ml, 50 μg/ml). NIH3T3 cells (ATCC CRL 1658) which are GGT-negative and NIH3T3 cells expressing hGGT [described previously were grown in DMEM/F12 media supplemented with 5% FBS and 0.2 mg/ml G418.
(§2) Cytotoxicity Assays: 786-0 cells were plated at 10^3 cells/well in a 96-well plate in DMEM supplemented with 10% FBS and penicillin/streptomycin (50 units/ml, 50 μg/ml). After 24 hours, the media was changed to fresh media containing OU749 analogs. A 100 mM stock of OU749 and each of its analogs were made in DMSO then diluted in DMEM. Control wells were treated with equivalent concentrations of DMSO. Cell viability was determined 72 hours after the addition of the inhibitors by the MTT assay. For the toxicity of the OU749 and its analogs in 786-0 cells, all determinations were done in triplicate. The LD50 of each compound and the standard deviation (S.D.) were calculated with a Prism log (inhibitor) versus normalized response (variable slope) curve fit (Prism, GraphPad Software Inc., San Diego, Calif.).

The next series deals with 786-0 cells. The series is described as above. In kind it is cell-based, human. Conditions: for fold less toxic (cytotoxic) than OU749: LD50 ratio, 786-O cells. The procedure:
as §1, §2

Series [3] concerns the target T1, Human GGT1 (hGGT). In words: L-GpNA Transpeptidation Assay with GlyGly as acceptor. In kind it is biochemical. Further details: lacking the transmembrane domain; made in house; host or cells: Pichia pastoris. The procedure:
Transpeptidation Reaction: The same assay buffer was used for both the hydrolysis reaction and the transpeptidation reaction. The transpeptidation reaction included 40 mM glycylglycine (glygly, Sigma, St. Louis, Mo.) as the acceptor. […] The concentration of L-GpNA was 3 mM for experiments in which the concentration of glygly was varied. To initiate the transpeptidation reaction, 4 mU GGT were added.
1. […] 3 and 4. […] 5 (25).
L-GpNA Transpeptidation Assay: The assay has been described previously. […] The concentration of L-GpNA was 3 mM for experiments in which the concentration of GlyGly was varied. To initiate the transpeptidation reaction, 4 mU GGT were added.

The target of a further series is T2, hGGT (Homo sapiens, UniProt P19440).
T2 construct: lacking the transmembrane domain; made in house; host or cells: Pichia pastoris
T2 sequence (P19440 381-569 limits assumed): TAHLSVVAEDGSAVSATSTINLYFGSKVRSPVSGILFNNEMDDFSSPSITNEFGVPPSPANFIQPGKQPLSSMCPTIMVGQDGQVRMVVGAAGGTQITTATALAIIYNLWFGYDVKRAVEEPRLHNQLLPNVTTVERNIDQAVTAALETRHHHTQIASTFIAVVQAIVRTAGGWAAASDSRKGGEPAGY
T2 sequence (P19440 27-380 limits assumed): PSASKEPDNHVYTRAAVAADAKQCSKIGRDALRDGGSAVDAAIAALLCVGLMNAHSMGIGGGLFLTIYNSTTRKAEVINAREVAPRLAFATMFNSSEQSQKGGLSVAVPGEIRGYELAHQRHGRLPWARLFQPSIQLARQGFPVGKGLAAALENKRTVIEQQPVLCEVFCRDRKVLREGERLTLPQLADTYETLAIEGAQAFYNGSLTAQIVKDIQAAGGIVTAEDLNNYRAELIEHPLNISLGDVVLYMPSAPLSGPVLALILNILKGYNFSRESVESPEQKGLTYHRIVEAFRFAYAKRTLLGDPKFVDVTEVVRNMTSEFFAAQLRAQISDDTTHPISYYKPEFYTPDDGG
In words: L-Glutamate Release Assay (Hydrolysis of GSH). To be noted: for Ki: GSH hydrolysis, read-out: GSH Kii; for fold more potent than OU749 in inhibiting GSH hydrolysis: relative to OU749. In kind it is biochemical. The procedure:
L-Glutamate Release Assay (Hydrolysis of GSH): This assay measures the production of glutamate from the hydrolysis of GSH by GGT enzyme and has been described in detail previously. The concentration of the substrate, GSH, was varied from 5 μM to 20 μM. The concentration of the inhibitors, OU749 and its analogs, were varied from 15.6 μM to 250 μM. The reaction was initiated with the addition of 10 mU hGGT. […] All compounds were also evaluated as inhibitors of glutamate dehydrogenase, the enzyme in the second half of the L-glutamate release assay. None of the compounds in this study inhibited glutamate dehydrogenase.

Series [4] relates to human GGT in NIH3T3^GGT cells. Put plainly: Catabolism of extracellular GSH by NIH3T3 cells transfected with human GGT. In kind it is cell-based. To be noted: Compound 6 100 μM, 20 μM GSH, one hour; 60 min. The procedure:
as §1
(§3) Catabolism of Extracellular GSH: 786-O and NIH3T3 cells were plated in 96-well plates at a density of 5×10^3 cells/well. After 24 hours, the media was changed to 100 μl cysteine-free DMEM/F12 supplemented with either 20 μM GSH or 20 μM GSH and 100 μM compound 6. After one hour, 50 μl of media was removed and immediately acidified with 5 μl ice-cold 43.1% 5-sulfosalicylic acid. After 10 minutes on ice, the solution was neutralized with 15 μl of 1 M NaOH. The GSH concentration was determined by the method of Tietze.

Series [5] deals with hGGT expressed on the surface of 786-0 cells. In words: Catabolism of extracellular GSH by 786-O cells. In kind it is cell-based, human. Conditions: 100 μM Compound 6, 20 μM GSH, one hour; 60 min. The procedure:
as §1, §3

Where [6] appears, read: GlyGly varied, 3 mM L-GpNA, Table 2, read-out: Transpeptidation GlyGly Kis.
Setting [7] is: L-GpNA varied, 40 mM GlyGly, Table 2, read-out: Transpeptidation L-GpNA Kii.

Like-named read-outs stand apart in the source and are kept apart here.

T1 sequence (P19440 381-569 limits assumed): as the sequence (P19440 381-569 limits assumed) above
T1 sequence (P19440 27-380 limits assumed): as the sequence (P19440 27-380 limits assumed) above

On to `COc1ccc(Cc2nnc(NS(=O)(=O)c3cccc(Cl)c3)s2)cc1` [Compound 3], for which the Ki at Human GGT1 (hGGT) [1] amounted to 74.9 ± 2.2 µM; on Human GGT1 (hGGT) [3] (setting [6]), 11.9 ± 1.1 µM; at Human GGT1 (hGGT) [3] (setting [7]), 22 ± 0.7 µM; on hGGT (Table 6), 67 ± 6 µM. Further, in series [2], the CC50 at 72 h is 382 µM. Besides, the “fold less toxic (cytotoxic) than OU749” value in the series on 786-0 cells is given as 3 fold. Also, the “fold more potent than OU749 in inhibiting GSH hydrolysis” value at hGGT worked out at 5.6 fold.
Turning to `Cc1ccc(Cc2nnc(NS(=O)(=O)c3ccc(N)cc3)s2)cc1` [Compound 22], the Ki at Human GGT1 (hGGT) [1] was found to be 31 ± 1 µM; at Human GGT1 (hGGT) [3] (Table 5, read-out: GlyGly with L-GpNA Kis) it was 6 ± 1 µM; on Human GGT1 (hGGT) [3] (Table 5, read-out: L-GpNA with GlyGly Kii), 30 ± 4 µM; at hGGT (Table 5), 82 ± 13 µM. Further, the CC50 at 72 h in series [2] stood at 727 ± 0.02 µM.
Consider `COc1ccc(Cc2nnc(NS(=O)(=O)c3cccc4ccccc34)s2)cc1` [Compound 6], for which the Ki at Human GGT1 (hGGT) [1] (read-out: Hydrolysis D-GpNA Kii, D-GpNA substrate, Table 2) is 161 ± 4.5 µM; on Human GGT1 (hGGT) [3] (setting [6]), 45.7 ± 3.4 µM; on Human GGT1 (hGGT) [3] (setting [7]), 74.9 ± 3.6 µM; at hGGT (Table 6), 96 ± 2 µM. For the same compound, the “fold less effective than OU749 in inhibiting hydrolysis of D-GpNA” value on Human GGT1 (hGGT) [1] (relative to OU749) is 2-5 fold. Moreover, the CC50 at 72 h in series [2] was around 2100 µM. In addition, the “fold less toxic (cytotoxic) than OU749” value in the series on 786-0 cells is “more than 16 fold”. Further, the CC50 in the series with 786-0 cells (dividing 786-O cells, 72 hours, 4320 min, read-out: LD50 (the source's name)) came to 2090 ± 20 µM. Besides, the “reduction of GSH metabolism in the media” value in series [4] is given as 59%. Further, the “block of hGGT catabolism of extracellular GSH” value in series [5] was 51%. Besides, on hGGT, the “fold more potent than OU749 in inhibiting GSH hydrolysis” value turned out to be 4 fold.
